# Legend:
# D. balteata = experiment: Soil activity of seed applied furathiocarb on maize cultivars Centaurus and Arjuna; type: in vivo, Diabrotica balteata; design: key to Scores of damage caused by D. balteata: 0-6 crown-root damage scale: 0 = no damage, 6 = <3 roots connect stem to soil
# From the text: Plastic pots, 1 litre volume, are filled with soil to within 3 cm of the top. Three soil types are used: • 1. A natural soil from Stein, Canton Aargau, Switzerland. This is heat sterilized and sieved to give an agglomerate size of less than 5 mm. Its composition is clay 20.7%, silt 13.7%, sand 65.6%, organic matter 3.2%, pH 5.6. Moisture is adjusted to 20% of dry weight. • 2. An artificial mixture of fine quartz sand and milled neutralized peat (2% of total by dry weight). The moisture is adjusted to 10% of dry weight. • 3. An artificial mixture similar to (2) except that the neutralized peat comprised 6% by dry weight. Moisture is adjusted to 20% for the mixture.
# One seed is sown 3 cm deep in the center of each of 10 pots per treatment. The pots are placed in a growth chamber with a relative humidity of 70% in a 12 hour daylength, light intensity 30,000 lux, using 26°C day and 22°C night temperatures. Soil moisture is maintained at the original level by daily irrigation with a commercially available nutrient solution.
# After two or three weeks of plant growth, 40 larvae of the banded cucumber beetle (Diabrotica balteata) are scattered on the surface of each pot. This insect species is commonly used as a laboratory model for the corn rootworm (Diabrotica spp.) which is a common soil insect pest of maize (Zea mays) in the USA. For this test, second instar larvae are selected. They are reared on maize seedlings at 23°C for 13 days from egglaying. The surface of the soil in the pots is disturbed and 40 larvae are scattered on the surface. The disturbance encourages burrowing of the larvae.
# The insects are allowed to feed on the plant roots for one week before the contents of each pot are separated into three components (roots, insects and soil) using a wet sieving technique. Living larvae are then counted and damage assessed on crown roots growing from the stem-base using the 0-6 scale shown below: • 0 = no damage • 1 = slight feeding damage, no roots eaten through • 2 = more than 3 places with feed damage, no roots eaten through • 3 = 1-2 roots eaten through • 4 = more than 2, but less than half the roots eaten • 5 = more than half the roots eaten, but at least 3 still connect stem and soil • 6 = less than 3 roots connect stem to soil
# This example includes the results of test series using 2 maize cultivars Centaurus and Arjuna. The basic test procedure is described in detail under example 20 therefore only differences are mentioned here.
# Seeds of the hybrid Centaurus are treated with 4 or 10 g/kg furathiocarb in either PVAc/PVAl or association polymer systems. The cultivar Arjuna is treated with 2.5 or 10 g/kg seed in the same polymer systems. The seeds are sown in two soil types, either a natural soil from Stein, Canton Aargau, Switzerland or in a 98% sand 2% peat mixture. Both these soil types are described previously.
# [1] = Solubilization of furathiocarb in aqueous surfactant solutions, UV spectroscopy; type: physicochemical; conditions: for enhancement in the solubility (increase): 1000 ppm
# Procedure: This example compares the solubilization of the biocide furathiocarb in a variety of aqueous surfactant solutions (1000 ppm). Experimental Note: 5 µl of furathiocarb (∼ 0.0060-0.0070 g) is pipetted into 10 ml aqueous solutions and stirred overnight. Analysis is performed by UV spectroscopy.
# corn rootworms = experiment: Field control of corn rootworms by insecticide/polymer combinations applied to the seed; type: in vivo, Diabrotica spp.; conditions: maize G 4733, 0-6 scale, 63 days after planting
# [2] = cultivar Arjuna, 98% Sand, 3 w, Association Polymer, dosage 2.5 g
# [3] = cultivar Arjuna, 98% Sand, 3 w, Association Polymer, dosage 10 g
# [4] = cultivar Arjuna, 98% Sand, 3 w, PVAc/PVAl, dosage 2.5 g
# [5] = cultivar Arjuna, 98% Sand, 3 w, PVAc/PVAl, dosage 10 g
# [6] = cultivar Arjuna, 98% Sand, 4 w, Association Polymer, dosage 2.5 g
# [7] = cultivar Arjuna, 98% Sand, 4 w, Association Polymer, dosage 10 g
# [8] = cultivar Arjuna, 98% Sand, 4 w, PVAc/PVAl, dosage 2.5 g
# [9] = cultivar Arjuna, 98% Sand, 4 w, PVAc/PVAl, dosage 10 g
# [10] = cultivar Arjuna, Stein Earth, 3 w, Association Polymer, dosage 2.5 g
# [11] = cultivar Arjuna, Stein Earth, 3 w, Association Polymer, dosage 10 g
# [12] = cultivar Arjuna, Stein Earth, 3 w, PVAc/PVAl, dosage 2.5 g
# [13] = cultivar Arjuna, Stein Earth, 3 w, PVAc/PVAl, dosage 10 g
# [14] = cultivar Arjuna, Stein Earth, 4 w, Association Polymer, dosage 2.5 g
# [15] = cultivar Arjuna, Stein Earth, 4 w, Association Polymer, dosage 10 g
# [16] = cultivar Arjuna, Stein Earth, 4 w, PVAc/PVAl, dosage 2.5 g
# [17] = cultivar Arjuna, Stein Earth, 4 w, PVAc/PVAl, dosage 10 g
# [18] = hybrid Centaurus, 98% Sand, 3 w, Association Polymer, dosage 4 g
# [19] = hybrid Centaurus, 98% Sand, 3 w, Association Polymer, dosage 10 g
# [20] = hybrid Centaurus, 98% Sand, 3 w, PVAc/PVAl, dosage 4 g
# [21] = hybrid Centaurus, 98% Sand, 3 w, PVAc/PVAl, dosage 10 g
# [22] = hybrid Centaurus, 98% Sand, 4 w, Association Polymer, dosage 4 g
# [23] = hybrid Centaurus, 98% Sand, 4 w, Association Polymer, dosage 10 g
# [24] = hybrid Centaurus, 98% Sand, 4 w, PVAc/PVAl, dosage 4 g
# [25] = hybrid Centaurus, 98% Sand, 4 w, PVAc/PVAl, dosage 10 g
# [26] = hybrid Centaurus, Stein Earth, 3 w, Association Polymer, dosage 4 g
# [27] = hybrid Centaurus, Stein Earth, 3 w, Association Polymer, dosage 10 g
# [28] = hybrid Centaurus, Stein Earth, 3 w, PVAc/PVAl, dosage 4 g
# [29] = hybrid Centaurus, Stein Earth, 3 w, PVAc/PVAl, dosage 10 g
# [30] = hybrid Centaurus, Stein Earth, 4 w, Association Polymer, dosage 4 g
# [31] = hybrid Centaurus, Stein Earth, 4 w, Association Polymer, dosage 10 g
# [32] = hybrid Centaurus, Stein Earth, 4 w, PVAc/PVAl, dosage 4 g
# [33] = hybrid Centaurus, Stein Earth, 4 w, PVAc/PVAl, dosage 10 g
smiles,measurement,setting,value
CCCCOC(=O)N(C)SN(C)C(=O)Oc1cccc2c1OC(C)(C)C2 [furathiocarb],Percent D. balteata survival,D. balteata; [2],5%
same,Scores of damage caused by D. balteata,D. balteata; [2],1.4
same,Percent D. balteata survival,D. balteata; [3],8%
same,Scores of damage caused by D. balteata,D. balteata; [3],1.2
same,Percent D. balteata survival,D. balteata; [4],20%
same,Scores of damage caused by D. balteata,D. balteata; [4],3.0
same,Percent D. balteata survival,D. balteata; [5],20%
same,Scores of damage caused by D. balteata,D. balteata; [5],2.8
same,Percent D. balteata survival,D. balteata; [6],17%
same,Scores of damage caused by D. balteata,D. balteata; [6],2.8
same,Percent D. balteata survival,D. balteata; [7],0%
same,Scores of damage caused by D. balteata,D. balteata; [7],0.6
same,Percent D. balteata survival,D. balteata; [8],39%
same,Scores of damage caused by D. balteata,D. balteata; [8],3.4
same,Percent D. balteata survival,D. balteata; [9],21%
same,Scores of damage caused by D. balteata,D. balteata; [9],3.2
same,Percent D. balteata survival,D. balteata; [10],1%
same,Scores of damage caused by D. balteata,D. balteata; [10],3.6
same,Percent D. balteata survival,D. balteata; [11],1%
same,Scores of damage caused by D. balteata,D. balteata; [11],1.8
same,Percent D. balteata survival,D. balteata; [12],5%
same,Scores of damage caused by D. balteata,D. balteata; [12],3.2
same,Percent D. balteata survival,D. balteata; [13],3%
same,Scores of damage caused by D. balteata,D. balteata; [13],3.0
same,Percent D. balteata survival,D. balteata; [14],17%
same,Scores of damage caused by D. balteata,D. balteata; [14],3.8
same,Percent D. balteata survival,D. balteata; [15],0%
same,Scores of damage caused by D. balteata,D. balteata; [15],2.3
same,Percent D. balteata survival,D. balteata; [16],11%
same,Scores of damage caused by D. balteata,D. balteata; [16],3.0
same,Percent D. balteata survival,D. balteata; [17],14%
same,Scores of damage caused by D. balteata,D. balteata; [17],3.4
same,Percent D. balteata survival,D. balteata; [18],2%
same,Scores of damage caused by D. balteata,D. balteata; [18],1.4
same,Percent D. balteata survival,D. balteata; [19],4%
same,Scores of damage caused by D. balteata,D. balteata; [19],0
same,Percent D. balteata survival,D. balteata; [20],17%
same,Scores of damage caused by D. balteata,D. balteata; [20],3.0
same,Percent D. balteata survival,D. balteata; [21],8%
same,Scores of damage caused by D. balteata,D. balteata; [21],1.8
same,Percent D. balteata survival,D. balteata; [22],8%
same,Scores of damage caused by D. balteata,D. balteata; [22],1.6
same,Percent D. balteata survival,D. balteata; [23],8%
same,Scores of damage caused by D. balteata,D. balteata; [23],1.2
same,Percent D. balteata survival,D. balteata; [24],36%
same,Scores of damage caused by D. balteata,D. balteata; [24],3.4
same,Percent D. balteata survival,D. balteata; [25],30%
same,Scores of damage caused by D. balteata,D. balteata; [25],3.6
same,Percent D. balteata survival,D. balteata; [26],0%
same,Scores of damage caused by D. balteata,D. balteata; [26],0.8
same,Percent D. balteata survival,D. balteata; [27],1%
same,Scores of damage caused by D. balteata,D. balteata; [27],1.0
same,Percent D. balteata survival,D. balteata; [28],1%
same,Scores of damage caused by D. balteata,D. balteata; [28],2.1
same,Percent D. balteata survival,D. balteata; [29],1%
same,Scores of damage caused by D. balteata,D. balteata; [29],1.0
same,Percent D. balteata survival,D. balteata; [30],4%
same,Scores of damage caused by D. balteata,D. balteata; [30],2.1
same,Percent D. balteata survival,D. balteata; [31],7%
same,Scores of damage caused by D. balteata,D. balteata; [31],1.9
same,Percent D. balteata survival,D. balteata; [32],4%
same,Scores of damage caused by D. balteata,D. balteata; [32],1.8
same,Percent D. balteata survival,D. balteata; [33],10%
same,Scores of damage caused by D. balteata,D. balteata; [33],2.2
same,"Solubility of Furathiocarb, ppm",[1]; 1000 ppm Alipal CO-433,25 ppm
same,"Solubility of Furathiocarb, ppm",[1]; 1000 ppm Alipal EP110,16 ppm
same,"Solubility of Furathiocarb, ppm",[1]; 1000 ppm Ethomeen T/15,89 ppm
same,"Solubility of Furathiocarb, ppm",[1]; 1000 ppm Pluronic F68,15 ppm
same,"Solubility of Furathiocarb, ppm",[1]; 1000 ppm Triton N101,220 ppm
same,enhancement in the solubility (increase),[1]; Ethomeen T/15 solution,5 fold
same,"Solubility of Furathiocarb, ppm",[1]; H₂O,15 ppm
same,enhancement in the solubility (increase),[1]; Triton N101 solution,14 fold
same,Ratings for corn rootworm damage,"corn rootworms; Granule, 0.1 g m⁻¹",3.2
same,Ratings for corn rootworm damage,"corn rootworms; seed treatment Association Polymer, 10 g/kg",4.5
same,Ratings for corn rootworm damage,"corn rootworms; seed treatment PVAc/PVAl, 10 g/kg",4.1
same,Ratings for corn rootworm damage,"corn rootworms; seed treatment PVAc/PVAl, 30 g/kg",4.8
